Experimental findings from PubChem BioAssay AID248 (DTP/NCI, 2004) are described below.

Several values for one entry are separate records, joined by “and”; a condition that tells them apart may be missing. Identical values can stand only once. Inconclusive results and toxic doses are left out.

This assay concerns L1210 leukemia ip in BDF1 mice, survival T/C. Kind of assay: NCI In Vivo Anticancer Drug Screen. Data for tumor model L1210 Leukemia (intraperitoneal) in B6D2F1 (BDF1) mice. Particulars: endpoint: mean survival time, higher = longer survival. The method, boiled down: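 Value reflects the ratio of survival in compound-treated mice to survival in vehicle-treated controls, with both groups carrying the same transplanted tumor.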

Setting [1] is: dose: 100.0 mg/kg/injection, schedule: Q01DX009 (ip), vehicle: saline.
Where [2] appears, read: dose: 200.0 mg/kg/injection, schedule: Q01DX009 (ip), vehicle: saline.
The mark [3] stands for this setting: dose: 400.0 mg/kg/injection, schedule: Q01DX009 (ip), vehicle: saline.
[4] abbreviates: dose: 100.0 mg/kg/injection, schedule: Q01DX001 (ip), vehicle: saline.
The mark [5] stands for this setting: dose: 200.0 mg/kg/injection, schedule: Q01DX001 (ip), vehicle: saline.
Where [6] appears, read: dose: 100.0 mg/kg/injection, schedule: Q01DX009 (ip), vehicle: Klucel (hydroxypropylcellulose) (HPC).
The mark [7] stands for this setting: dose: 100.0 mg/kg/injection, schedule: Q04DX003 (ip), vehicle: Klucel (hydroxypropylcellulose) (HPC).
Where [8] appears, read: dose: 200.0 mg/kg/injection, schedule: Q01DX009 (ip), vehicle: Klucel (hydroxypropylcellulose) (HPC).
Where [9] appears, read: dose: 200.0 mg/kg/injection, schedule: Q04DX003 (ip), vehicle: Klucel (hydroxypropylcellulose) (HPC).
[10] abbreviates: dose: 400.0 mg/kg/injection, schedule: Q01DX009 (ip), vehicle: Klucel (hydroxypropylcellulose) (HPC).
The mark [11] stands for this setting: dose: 400.0 mg/kg/injection, schedule: Q04DX003 (ip), vehicle: Klucel (hydroxypropylcellulose) (HPC).
[12] abbreviates: dose: 25.0 mg/kg/injection, schedule: Q01DX009 (ip), vehicle: Klucel (hydroxypropylcellulose) (HPC).

As to `Nc1cc(=O)[nH][nH]1`, the T/C reads like this: under setting [1], 98 % of control; (dose: 100.0 mg/kg/injection, schedule: Q04DX003 (ip), vehicle: saline) 102 % of control; under setting [2], 106 % of control; (dose: 200.0 mg/kg/injection, schedule: Q01DX Z (ip), vehicle: carboxymethylcellulose (CMC)) 115 % of control; (dose: 200.0 mg/kg/injection, schedule: Q01DX Z (ip), vehicle: saline) 115 % of control; (dose: 200.0 mg/kg/injection, schedule: Q04DX003 (ip), vehicle: saline) 107 % of control. Also, the T/C reads like this: (dose: 300.0 mg/kg/injection, schedule: Q01DX Z (ip), vehicle: carboxymethylcellulose (CMC)) 115 % of control; (dose: 300.0 mg/kg/injection, schedule: Q01DX Z (ip), vehicle: saline) 123 % of control; under setting [3], 120 % of control; (dose: 400.0 mg/kg/injection, schedule: Q04DX003 (ip), vehicle: saline) 105 % of control; (dose: 450.0 mg/kg/injection, schedule: Q01DX Z (ip), vehicle: carboxymethylcellulose (CMC)) 121 % of control; (dose: 675.0 mg/kg/injection, schedule: Q01DX Z (ip), vehicle: saline) 112 % of control.
Turning to `CC(=O)N(CCN(C)C)Cc1ccccc1`, the T/C under setting [4] is 98 % of control and the T/C under setting [5] was 98 % of control.
For the compound `O=C1N(c2nncs2)CCN1[N+](=O)[O-]`, the T/C under setting [6] is 95 % of control; the T/C under setting [7] was 95 % of control; the T/C under setting [8] is 98 % of control; the T/C under setting [9] was 98 % of control; the T/C under setting [10] is 103 % of control; the T/C under setting [11] was 102 % of control.
Turning to `C/C=C/C(=O)Nc1ccc(Cl)c(Cl)c1`, the T/C runs as follows: (dose: 100.0 mg/kg/injection, schedule: Q04DX002 (ip), vehicle: Klucel (hydroxypropylcellulose) (HPC)) 94 % of control; (dose: 200.0 mg/kg/injection, schedule: Q04DX002 (ip), vehicle: Klucel (hydroxypropylcellulose) (HPC)) 90 % of control; (dose: 400.0 mg/kg/injection, schedule: Q04DX002 (ip), vehicle: Klucel (hydroxypropylcellulose) (HPC)) 90 % of control.
Take `CCCC(C)C(C#N)c1ccccc1` (configuration not stated): the T/C runs as follows: under setting [12], 101 % of control and 103 % of control; (dose: 25.0 mg/kg/injection, schedule: Q04DX003 (ip), vehicle: Klucel (hydroxypropylcellulose) (HPC)) 95 % of control; (dose: 50.0 mg/kg/injection, schedule: Q01DX009 (ip), vehicle: Klucel (hydroxypropylcellulose) (HPC)) 93 % of control and 98 % of control and 90 % of control; (dose: 50.0 mg/kg/injection, schedule: Q04DX003 (ip), vehicle: Klucel (hydroxypropylcellulose) (HPC)) 88 % of control; under setting [7], 89 % of control.
As to `CCCCCCOc1ccc(C=Nc2ccc(C)cc2)cc1`, the T/C runs as follows: under setting [7], 97 % of control; under setting [9], 103 % of control; under setting [11], 101 % of control.
As for `COc1cccc2c1C(=O)c1c(O)c3c(c(O)c1C2=O)CC(O)(/C(C)=N/NC(=O)c1ccccc1)CC3OC1CC(N)C(O)C(C)O1` (configuration not stated), the T/C (dose: 200.0 mg/kg/injection, schedule: Q04DX003 (ip), vehicle: water) was 124 % of control.
In the case of `CC(=O)NCCc1ccc(N)cc1`, the T/C runs as follows: under setting [4], 108 % of control; under setting [5], 101 % of control; (dose: 400.0 mg/kg/injection, schedule: Q01DX001 (ip), vehicle: saline) 98 % of control.
With `OC(c1ccccc1)(c1ccccc1)C1CCCCC1C(O)(c1ccccc1)c1ccccc1` (configuration not stated), the T/C is, setting by setting: under setting [1], 93 % of control; under setting [2], 93 % of control; under setting [3], 89 % of control.
Regarding `O=C(COc1ccc(Cl)cc1)NC(CO)(CO)CO`, the T/C (dose: 100.0 mg/kg/injection, schedule: Q04DX002 (ip), vehicle: saline with Tween-80) is 103 % of control; the T/C (dose: 200.0 mg/kg/injection, schedule: Q04DX002 (ip), vehicle: saline with Tween-80) is 103 % of control; the T/C (dose: 400.0 mg/kg/injection, schedule: Q04DX002 (ip), vehicle: saline with Tween-80) was 103 % of control.
Take `CCCN=C(N)c1ccc(N=C(N)c2ccc(N=C(N)c3ccc(C(N)=NCCC)cc3)cc2)cc1`: the T/C reads like this: (dose: 15.0 mg/kg/injection, schedule: Q01DX Z (ip), vehicle: carboxymethylcellulose (CMC)) 154 % of control; (dose: 30.0 mg/kg/injection, schedule: Q01DX Z (ip), vehicle: carboxymethylcellulose (CMC)) 88 % of control; (dose: 50.0 mg/kg/injection, schedule: Q01DX Z (oral), vehicle: carboxymethylcellulose (CMC)) 110 % of control; (dose: 100.0 mg/kg/injection, schedule: Q01DX Z (oral), vehicle: carboxymethylcellulose (CMC)) 109 % of control; (dose: 200.0 mg/kg/injection, schedule: Q01DX Z (oral), vehicle: carboxymethylcellulose (CMC)) 106 % of control; (dose: 400.0 mg/kg/injection, schedule: Q01DX Z (oral), vehicle: carboxymethylcellulose (CMC)) 109 % of control.
In the case of `O=CN/N=C/c1cccc([N+](=O)[O-])c1`, the T/C is, setting by setting: (dose: 75.0 mg/kg/injection, schedule: Q01DX001 (ip), vehicle: saline) 95 % of control; (dose: 150.0 mg/kg/injection, schedule: Q01DX001 (ip), vehicle: saline) 95 % of control; (dose: 300.0 mg/kg/injection, schedule: Q01DX001 (ip), vehicle: saline) 92 % of control.
`[N-]=Cc1c(O)cccc1Cl.[N-]=Cc1cc(Cl)ccc1O.[Ni+2]`: the T/C is 96 % of control (dose: 6.25 mg/kg/injection, schedule: Q01DX009 (ip), vehicle: Klucel (hydroxypropylcellulose) (HPC)); 93 % of control (dose: 12.5 mg/kg/injection, schedule: Q01DX009 (ip), vehicle: Klucel (hydroxypropylcellulose) (HPC)); 95 % of control under setting [12]; 97 % of control under setting [7]; 87 % of control under setting [9]; 86 % of control under setting [11].
For the compound `CC(C)C1OCCO1`, the T/C by setting is: (dose: 50.0 mg/kg/injection, schedule: Q01DX009 (ip), vehicle: acetone) 92 % of control; (dose: 100.0 mg/kg/injection, schedule: Q01DX009 (ip), vehicle: acetone) 101 % of control; (dose: 200.0 mg/kg/injection, schedule: Q01DX009 (ip), vehicle: acetone) 95 % of control.
`OC(c1cc2c3c(c1)CCCN3CCC2)(C(F)(F)F)C(F)(F)F`: the T/C was 92 % of control (dose: 100.0 mg/kg/injection, schedule: Q04DX003 (ip), vehicle: saline with Tween-80) and 96 % of control (dose: 200.0 mg/kg/injection, schedule: Q04DX003 (ip), vehicle: saline with Tween-80).
For `COC(=O)c1ccccc1NC(=O)Cc1ccccc1`, the T/C runs as follows: under setting [6], 91 % of control; under setting [8], 98 % of control; under setting [10], 98 % of control.
As to `CCOc1ccc(Br)cc1C1N(Cc2ccc(N(CCCl)CCCl)cc2C)CCCN1Cc1ccc(N(CCCl)CCCl)cc1C`, the T/C (dose: 100.0 mg/kg/injection, schedule: Q01DX001 (ip), vehicle: carboxymethylcellulose (CMC)) is 106 % of control; the T/C (dose: 200.0 mg/kg/injection, schedule: Q01DX001 (ip), vehicle: carboxymethylcellulose (CMC)) is 101 % of control; the T/C (dose: 400.0 mg/kg/injection, schedule: Q01DX001 (ip), vehicle: carboxymethylcellulose (CMC)) is 108 % of control.
